We go through three compounds from US20210322582A1, “RADIOACTIVE IMIDAZOTHIADIAZOLE DERIVATIVE COMPOUND” (Nihon Medi-Physics Co., Ltd., priority 2018, published 2021).

Data set [1] deals with T1, CA-IX (Homo sapiens, UniProt Q16790). The data set is described as follows: Affinity of non-radioactive HIC205 for CA-IX measured by Biacore. Type of data set: binding. Set-up: purchased R&D Systems Inc. The procedure:
The affinity was measured by using Biacore (manufactured by GE Healthcare). Human CA-IX (manufactured by R&D Systems Inc.) was immobilized on a sensor chip (CM7) by an amino coupling method. After non-radioactive HIC205 was dissolved in 100% dimethyl sulfoxide (DMSO), the obtained solution was diluted with a running buffer in a stepwise manner by 10 times, and a non-radioactive HIC205 solution containing 0.1% DMSO was finally prepared. Based on this, a 2-fold dilution series was prepared with the running buffer containing 0.1% DMSO, and the measurement was performed. In this regard, the composition of the running buffer was 0.01 M HEPES (pH 7.4), 0.15M sodium chloride, and 0.005% v/v Surfactant P20. The sensorgram obtained from each concentration was directly curve fitted by a non-linear least-squares method, and the affinity was calculated.

The target of data set [2] is T1, CA-IX. The data set is described as follows: In vitro autoradiography of tumor sections using [^123I]HIC205. Type of data set: binding. Set-up: Fresh-frozen sections (each 14 μm) were prepared from a tumor having a tumor volume of around 200 mm^3; from tissue. The procedure:
Fresh-frozen sections (each 14 μm) were prepared from a tumor having a tumor volume of around 200 mm^3, and then the prepared fresh-frozen sections were sufficiently air dried. The dried fresh-frozen sections were immersed in Tris-buffered saline (TBS), and then immersed in a TBS adjusted so as to have 5 kBq/ml of [^123I]HIC205 and a solution containing 400 μM acetazolamide in the TBS (both contained 0.1% dimethyl sulfoxide (DMSO)), and both the sections were incubated at the same time (at 37° C. for 30 minutes). After that, the resultant sections were washed with TBS and 40% ethanol (EtOH)-containing TBS, respectively, and then air dried. The air-dried sections were each brought into contact with an imaging plate (IP), and were read out by a bioimaging analyzer BAS2000 (manufactured by FUJIFILM Corporation). The section used for autoradiography (ARG) was directly subjected to immunohistochemistry that was performed by using a goat-derived anti-CA-IX antibody.
The localization of the radioactivity of [^123I]HIC205 and the difference in the binding of [^123I]HIC205 between the individual treatments are shown FIG. 1.
The results of the comparison of the localization of the radioactivity of [^123I]HIC205 with the expression of CA-IX are shown in FIGS. 2A and 2B. […] The region between two arrows indicates the part where the binding of [^123I]HIC205 and the expression of CA-IX are not consistent. Further, FIG. 2B is an enlarged view showing the region between the two arrows of the result of immunohistochemical staining of animal B shown in the lower left of FIG. 2A, in which the result of immunohistochemical staining of FIG. 2A was shown on the left side, and an enlarged view of the region between the two arrows was shown on the right side. The parts indicated by the arrows indicate the overlap of the section.

Another data set relates to HT-29 tumor. The data set is described as follows: Biodistribution of [^111In]ITDA2 in HT-29 tumor cancer-bearing mouse. Type of data set: in vivo. The conditions noted are these: from Tables 8 and 9. How it is done:
HT-29 cells (5×10^6 cells/mouse) and MDA-MB-231 cells (1×10^7 cells/mouse) were subcutaneously inoculated into the left shoulders of 5-week old male BALB/c nude mice, respectively, and the mice were used when the tumor diameter reached 6 to 10 mm. A saline solution (100 μL) in which [^111In]ITDA2 (40 kBq) had been dissolved was administered to each of the HT-29 tumor or MDA-MB-231 tumor cancer-bearing mice (n=5) via the tail vein. The HT-29 tumor cancer-bearing mice were slaughtered after the lapse of 1, 4, 8, and 24 hours from the administration, the MDA-MB-231 tumor cancer-bearing mouse was slaughtered after the lapse of 24 hours from the administration, and the blood, spleen, pancreas, stomach, intestines, kidney, liver, heart, lungs, brain, tumor, and muscle were recovered from each of the mice. The weight of each organ was measured, and the amount of radioactivity in each organ was measured by using a gamma counter. The accumulation of radioactivity in each organ except for stomach was expressed by % injected dose/g organ obtained by dividing the ratio of the amount of radioactivity of each organ to the administered amount of radioactivity by the organ weight. The stomach was expressed by % injected dose.

One may read the Kd as the constant that tells how readily two partners part at equilibrium. For `NS(=O)(=O)c1nn2cc(-c3ccc(I)cc3)nc2s1` [non-radioactive HIC205, 6-(4-iodophenyl)imidazo[2,1-b][1,3,4]thiadiazole-2-sulfonamide], at CA-IX [1] (immobilized human CA-IX, n = 1), the Kd was 0.109 nM. Also, the “Dissociation constant (×10^−3)” value at CA-IX [1] (n = 1) is 0.903 ×10^−3 [1/s]. In addition, the kon at CA-IX [1] (n = 1, read-out: Binding constant (×10^5)) is 8.31e+06 M⁻¹ s⁻¹.

Regarding `NS(=O)(=O)c1nn2cc(-c3ccc([123I])cc3)nc2s1` [[^123I]HIC205], the “Binding on the tumor section with simultaneous incubation with acetazolamide” value on CA-IX [2] (400 μM acetazolamide) is on record as “decreased”. The “Binding on the tumor section (autoradiogram)” value on CA-IX [2] (5 kBq/ml, 37° C. for 30 minutes, washed with TBS) is recorded as “confirmed with contrast on the tumor section”. Further, at CA-IX [2] (40% ethanol-containing TBS wash), the “Localization of the radioactivity after washing the section with 40% ethanol” value is listed as “significantly reduced”. Further, the “Binding ability to CA-IX” value at CA-IX [2] (conclusion of autoradiography) is listed as “has binding ability to CA-IX”. The “Localization of radioactivity compared with expression site of CA-IX (immunohistochemical staining)” value on CA-IX [2] (two animals) is recorded as “mostly consistent”.

Turning to `NS(=O)(=O)c1nn2cc(-c3ccc(NC(=O)CN4CCN(CC(=O)O)CCN(CC(=O)Nc5ccc(-c6cn7nc(S(N)(=O)=O)sc7n6)cc5)CCN(CC(=O)O)CC4)cc3)nc2s1` [ITDA2, 2,2′-(4,10-bis(2-oxo-2-((4-(2-sulfamoylimidazo[2,1-b][1,3,4]thiadiazol-6-yl)phenyl)amino)ethyl)-1,4,7,10-tetraazacyclododecan-1,7-diyl) diacetic acid], in the data set with HT-29 tumor, the “Tumor accumulation compared with ITDA1” value is listed as “lower values as compared with those of ITDA1”, the “Tumor/blood ratio compared with ITDA1” value is “lower values as compared with those of ITDA1” and the “Tumor/muscle ratio compared with ITDA1” value is listed as “almost the same value as that of ITDA1”.
